Test results taken from ChEMBL document CHEMBL3507680, “University of Dundee, Gates Library screen for HepG2 cell viability”.

Test: Human HepG2 cell viability assay in 384 well format
Type: toxicity, cell-based
Design: dose 125 nL, time 70.5 hour; concentration not given beside the values
Settings: HepG2 cells, read-out: Inhibition

Row | Compound | cytotoxicity at 70.5 h
1 | CN(CC(N)=O)CC(=O)N1CC=C(c2ccccc2)CC1 | -10.6%
2 | COCCn1cc(CCC(=O)Nc2c(C)nn(C)c2C)c2ccccc21 | 49.6%
3 | Cc1ncc(CN(Cc2ccccn2)Cc2ccccc2Cl)n1C | 11.6%
4 | O=C(NCC(F)F)c1ccc(S(=O)(=O)NCCc2cn[nH]c2)cc1 | -8.61%
5 | CC(C)C(=O)NCc1ccc(-n2cncn2)nc1 | -4.44%
6 | CN(C)c1cc(CNC(=O)c2ccccc2S(C)(=O)=O)ccn1 | 0.46%
7 | COc1cc(CN2CCCC(Nc3cccc(F)c3)C2)cc(Cl)c1O (centres undefined) | 6.37%
8 | Cc1ccc(C2(O)CCN(C(=O)CCn3ccc(=O)[nH]c3=O)CC2)nc1 | -10.1%
9 | Cc1ccc(N2CCC(c3[nH]ncc3Cc3ccccc3)CC2)nn1 | -10%
10 | CN(C)C1CCN(C(=O)NCc2ccc(Cn3cncn3)cc2)CC1 | 14.8%
11 | Cn1ccc(C2CCCCN2C(=O)c2cccc(Cn3cccn3)c2)n1 (centres undefined) | 8.89%
12 | Cc1cc(C(=O)NC2CCCOc3cc(Cl)ccc32)n(C)n1 (centres undefined) | -5.69%
13 | CC(NCCc1nccn1Cc1ccccc1)c1cccs1 (centres undefined) | 13.3%
14 | O=C(c1ccc(-n2cccn2)nc1)N1CCC(c2ccn[nH]2)C1 (centres undefined) | -8.23%
15 | CN(Cc1csc(-c2cccs2)n1)Cc1cccnc1N | -14.6%
16 | CC(C)OCCCNC(=O)c1c(-n2cnnn2)sc2c1CCCC2 | -25.4%
17 | COc1cccc(C(NCc2ccc(SC)cc2)c2nccn2C)c1 (centres undefined) | 3.42%
18 | CCOc1ccccc1-c1cc2c(cc1C(N)=O)OCO2 | 9.52%
19 | COCCN(C)C[C@H]1C[C@H](CO)CN(C(=O)c2ccc(=O)n(C)c2)C1 | -3.23%
20 | Cc1nc(C)n(CC2CN(Cc3cccc(C#N)c3)CCO2)n1 (centres undefined) | -24.6%
21 | Cc1[nH]/c(=N/C(=O)Cn2nc(N3CCOCC3)ccc2=O)sc1C | -6.43%
22 | CN1CC(=O)N(c2ccccc2)CC12CCN(C(=O)c1cnccn1)C2 (centres undefined) | 22.8%
23 | CC(NC(=O)c1coc(COc2cccc(F)c2)n1)c1nnc(N)s1 (centres undefined) | -10.7%

Row | Compound | cytotoxicity at 70.5 h
24 | CCOC(=O)[C@]12CCCN(Cc3ccco3)C[C@H]1CN(CCN(C)C)C2 | -8.65%
25 | Cc1oncc1C(=O)N[C@@H]1CN(C2CCC2)C[C@@H]2CCCO[C@@H]21 | -0.67%
26 | CC[C@H]1NCCC[C@]12CCC(=O)N2Cc1ccncc1 | -0.708%
27 | CNc1nc(N2CCN(C)C(CCO)C2)nc2c1CCC2 (centres undefined) | 2.44%
28 | NC(=O)C1CCN(C(=O)NCc2ccccc2-n2cccn2)CC1 | -4.82%
29 | COCC(=O)N1CCCC2(CCN(c3ccsc3)C2=O)C1 (centres undefined) | 32.8%
30 | CCN(C(=O)Nc1cccnc1OC)C1CC1 | -9.27%
31 | CC(=O)Nc1nc(CN2CCOC(Cn3nc(C)cc3C)C2)cs1 (centres undefined) | 10.6%
32 | Cc1ccc(C(=O)N2CCSCC2)cc1NC(C)C | -3.36%
33 | CNC(=O)c1ccc(NC2CCN(CC(F)(F)F)C2=O)cc1Cl (centres undefined) | -7.41%
34 | COc1ccc(CN2CCC(c3cc(O)nc(C)n3)C2)c(OC)c1 (centres undefined) | -3.26%
35 | O=C(Cc1ccsc1)N1C[C@@H]2C[C@@H](c3nnc(C4CC4)o3)O[C@@H]2C1 | 4.61%
36 | CN1CC(C(=O)NC2(c3cccc(F)c3)CCOCC2)CC1=O (centres undefined) | -7.9%
37 | c1csc(CN2C[C@H](OCC3CC3)[C@H]3COC[C@H]32)n1 | -3.74%
38 | CCCSCC(=O)N1CCCC(c2nccn2Cc2ccncc2)C1 (centres undefined) | 25.6%
39 | Cc1ccccc1CSc1nc(N)cc(N2CCOC(C(N)=O)C2)n1 (centres undefined) | 1.56%
40 | CN(C)c1ncc(CNC2CC(=O)N(CCc3cccc(Cl)c3)C2)s1 (centres undefined) | -4.44%
41 | COCCN(Cc1ccccn1)C(=O)Nc1cccnc1N1CCCC1 | -12.3%
42 | Cc1cc(-c2cnc(N3CCN(C)CC3)nc2C(C)C)on1 | -3.07%
43 | Cc1noc(C)c1CN(C)CC1CCCN1c1cccnn1 (centres undefined) | -7.19%
44 | OCc1cc2ccccc2nc1NCC1(O)CCC1 | -8.77%
45 | Cc1ccc(C(=O)NS(=O)(=O)Cc2ccc(F)cc2)cc1S(C)(=O)=O | -3.12%
46 | CC(C(=O)Nc1ccc(N2CCCC2)nc1)n1ccnc1 (centres undefined) | -11.6%

Row | Compound | cytotoxicity at 70.5 h
47 | COCCOc1ccc(CNc2nc3ccccc3o2)cn1 | -10.8%
48 | Cc1nc2ccccc2nc1CN1CCCC1Cn1cncn1 (centres undefined) | 19.7%
49 | CCN(C(=O)NCc1cccnc1N(C)C)C(C)c1cccnc1 (centres undefined) | -8.8%
50 | Cc1ccc(-c2nc(CCNCc3ccncc3)co2)cc1 | -6.27%
51 | CN1CCO[C@@H]2CN(S(=O)(=O)c3ccccc3F)CC[C@@H]2C1 | -1.61%
52 | O=C1CC[C@H]2CN(Cc3ncc[nH]3)CC[C@H]2N1CC1CCNCC1 | -1.94%
53 | CCC(CC(=O)NS(=O)(=O)C(C)C)c1ccccc1 (centres undefined) | 11.1%
54 | C=C(C)CN1CCC(NC(=O)Nc2ccc(F)c(C(N)=O)c2)CC1 | -6.42%
55 | COc1ccc(Oc2ccc(C(F)(F)F)cn2)cc1CN1CCCC1 | -11.6%
56 | Cn1cc(N2CC3(CCN(CC4CC4)C3)CC2=O)cn1 (centres undefined) | -2.96%
57 | N#Cc1cc2c(nc1O)CCCCC2 | -2.17%
58 | COCc1nc2cc(NCc3ccncc3)ccc2o1 | 16.6%
59 | COCC1CN(CC2CC2)Cc2nccn2C1 (centres undefined) | -6.11%
60 | CCCN(CC(F)(F)F)S(=O)(=O)c1cc(C(N)=O)n(C)c1 | -8.17%
61 | O=C(c1cncc(NCC2COc3ccccc3C2)n1)N1CCCCC1 (centres undefined) | 0.974%
62 | O=C(NCCNc1ncccn1)C1CC(=O)N(Cc2ccccc2)C1 (centres undefined) | -8.64%
63 | Cc1cncc(C(=O)N2C[C@@H]3CN(S(C)(=O)=O)CCO[C@@H]3C2)c1 | 19.6%
64 | O=C1CCCN1Cc1nc(-c2ccsc2)no1 | 19.8%
65 | COc1cc(NCC(=O)NC(C)(C#N)C(C)C)cc(OC)c1OC (centres undefined) | -0.783%
66 | CCOC1CCCN(C(=O)CCOc2ccc(C)cc2OC)C1 (centres undefined) | 24.8%
67 | Cc1ncc2c(n1)CN(Cc1cccc3c1OCCO3)CC2 | -1.1%
68 | O=C(C1CC1)N(CCc1ccccc1)C1CCOC1 (centres undefined) | -6.28%
69 | Cc1ncsc1C(=O)NCCn1nc(C2CCNC2)c2cccnc21 (centres undefined) | -14.3%

Row | Compound | cytotoxicity at 70.5 h
70 | CC(=O)N(Cc1ncc(C(C)C)o1)C1CCN(CCC#N)C1 (centres undefined) | -7%
71 | COc1cccc(N2CCC(CNCc3cccc(C#N)c3)C2)c1 (centres undefined) | 9.04%
72 | CC1CCc2nc(O)c(C(=O)NCCc3cccs3)cc2C1 (centres undefined) | -7.76%
73 | Cc1ccc(OCCN(C)S(=O)(=O)c2cnn(C)c2)cc1 | -4.35%
74 | COc1ccc(OC)c(C2CCN(C(=O)CCc3n[nH]c(N)n3)C2)c1 (centres undefined) | 12.4%
75 | Cc1nn(C)cc1CC(C#N)C(=O)Nc1cccc(O)c1 (centres undefined) | -12.6%
76 | CN(CCCNC(=O)C1CCCN(C(N)=O)C1)S(C)(=O)=O (centres undefined) | -9.57%
77 | CCc1nc(CNc2ccc(C(=O)N3CCSCC3)cc2C)no1 | -6.1%
78 | CC(C)n1cc(CN2CCCN(C(=O)C(C)n3cccn3)CC2)cn1 (centres undefined) | -2.97%
79 | CNC(=O)[C@@H](c1ccccc1F)N1CCC[C@H]1C(=O)NC1CC1 | -4.55%
80 | CCC(=O)N1CCC(Cc2ccccc2-c2ccncc2)(C(N)=O)C1 (centres undefined) | -10.9%
81 | Cc1nc(CC(=O)N2CCC(c3ccn4nccc4n3)CC2)cs1 | 1.76%
82 | Cc1cc(C(=O)Nc2cc(C3CC3)n[nH]2)c2c(C)nn(C)c2n1 | -12.4%
83 | Cc1cccc(-c2nc(N)nc3c2CN(C(=O)C2CCCC2)C3C)c1 (centres undefined) | -18.6%
84 | COc1ccc(C2(C(=O)N3CC(c4cccnc4)C3)CC2(C)C)cc1 (centres undefined) | -0.294%
85 | Cc1cnn(CC2CCCCN2CCn2cncn2)c1 (centres undefined) | 1.52%
86 | COCCN1CCC(CNC(=O)C2(NC(C)=O)CCCCC2)CC1 | -8.37%
87 | COCC(=O)N1CCN(C(C)=O)C[C@@H]1C(=O)OC | 12.2%
88 | N#Cc1cc(F)ccc1NCC1CCS(=O)(=O)CC1 | -1.39%
89 | O=C(O)C1CCCN(C(=O)CCn2ccc3c(Br)cccc32)C1 (centres undefined) | -12.2%
90 | CN(Cc1cnn(C)c1)C(=O)NCC1CCS(=O)(=O)C1 (centres undefined) | -4.43%
91 | CN(C)S(=O)(=O)N(C)C(c1cccc(F)c1)c1ccccn1 (centres undefined) | -19.9%
92 | CCc1nccn1-c1cccc(C2CCCN2)n1 (centres undefined) | -1.73%

Row | Compound | cytotoxicity at 70.5 h
93 | O=C(c1cncc(N2CCCC3(CCNCC3)CC2)n1)N1CCCCC1 | 8.06%
94 | CCc1ncc(C(=O)N2CCOCC2CC(=O)c2ccccc2)s1 (centres undefined) | -5.53%
95 | Cc1ccc(NC2CCN(C(=O)c3cnn(C(C)(C)C)c3)CC2)nn1 | -14.1%
96 | Cc1c(CN2CCCC(n3c(=O)oc4ccccc43)C2)cnn1C (centres undefined) | 17.2%
97 | CCCSc1nc(O)c(CC)c(=O)n1-c1ccccc1 | -6.46%
98 | Cc1nn(C)c(C)c1-c1cc(-c2cc(CC(=O)O)cs2)nc(N)c1C#N | -7.79%
99 | CCc1ccc(CCC(=O)N2CCOCC2c2ncon2)cc1 (centres undefined) | -9.85%
100 | CC(C)(C)c1n[nH]c(C2CN(C(=O)C3=COCCC3)CCO2)n1 (centres undefined) | -6.48%
101 | Cn1cnc(S(=O)(=O)N2C[C@@H]3CC[C@H](C2)N(Cc2cscn2)C3=O)c1 | -6.52%
102 | Cc1cc(CN2CCc3cncnc3C2)on1 | 9.54%
103 | Cc1cc(CS(=O)(=O)NC2CCCc3ccccc32)on1 (centres undefined) | -1.17%
104 | CC(C)CN1CCn2c(COCc3cccnc3)nnc2C1 | -4.01%
105 | Cc1nn(C)c(C)c1CN(C)c1nc(C2CCCC2)nc2c1cnn2C | 8.68%
106 | Cc1ccc(CN2CCOC3(COCCN(C(C)C)C3)C2)s1 (centres undefined) | 18.3%
107 | CC(C)n1ccnc1CN1CCCN(C(=O)c2cnn(C)c2)CC1 | -0.464%
108 | COCCN1CCC2(CC1)CC(c1cccnc1)CO2 (centres undefined) | -4.14%
109 | O=C(C1CCCC1)N1C[C@@H]2CCNC[C@@H]21 | -9.43%
110 | Cn1c(SCC(=O)NC(C)(C#N)C2CC2)nc2ccccc21 (centres undefined) | 0.675%
111 | CCn1cc(CN(C)S(=O)(=O)c2ccc(C(C)C)cc2)cn1 | -6.2%
112 | CCc1nc(CN(C)C2CCN(Cc3ccc(C#N)cc3F)C2)no1 (centres undefined) | 14.4%
113 | COc1cccc(C(=O)NCc2ccccc2S(=O)(=O)N(C)CCO)c1 | -4.69%
114 | O=C(c1ccc2nncn2c1)N1CCCC(n2ccnc2)C1 (centres undefined) | -14.2%
